According to ChEMBL document CHEMBL3227939, “Synthesis of daunorubicin analogues with novel 9-acyl substituents” (1979):

Experiments:
[1] = test system: L1210; assay: Inhibition of RNA synthesis in mouse L1210 cells; assay type: functional; conditions: read-out: ED50 (the source's name)
[2] = test system: L1210; assay: Inhibition of DNA synthesis in mouse L1210 cells; assay type: functional; conditions: read-out: ED50 (the source's name)
[3] = test system: P388; assay: Antitumor activity against mouse P388 cells allografted in CDF/RDF mouse assessed as increase in survival time at 3.13 mg/kg, ip administered once daily on days 1 to 9 relative to control; assay type: functional; conditions: route intraperitoneal
[4] = test system: Calf thymus DNA; assay: Binding affinity to calf thymus DNA assessed as change in melting temperature; assay type: nucleic-acid assay; conditions: Bos taurus
[5] = test system: P388; assay: Antitumor activity against mouse P388 cells allografted in CDF/RDF mouse assessed as increase in survival time at 37.5 mg/kg, ip administered once daily on day 5, 9 and 13 relative to control; assay type: functional; conditions: route intraperitoneal
[6] = test system: P388; assay: Antitumor activity against mouse P388 cells allografted in CDF/RDF mouse assessed as increase in survival time at 50 mg/kg, ip administered once daily on day 5, 9 and 13 relative to control; assay type: functional; conditions: route intraperitoneal
[7] = test system: P388; assay: Antitumor activity against mouse P388 cells allografted in CDF/RDF mouse assessed as increase in survival time at 4 mg/kg, ip administered once daily on days 1 to 9 relative to control; assay type: functional; conditions: route intraperitoneal
[8] = test system: P388; assay: Antitumor activity against mouse P388 cells allografted in CDF/RDF mouse assessed as increase in survival time at 12.5 mg/kg, ip administered once daily on day 5, 9 and 13 relative to control; assay type: functional; conditions: route intraperitoneal

| Compound | EC50 [1] [nM] | EC50 [2] [nM] | T/C [3] [%] | ΔTm [4] [°C] | T/C [5] [%] | T/C [6] [%] | T/C [7] [%] | T/C [8] [%] |
| --- | --- | --- | --- | --- | --- | --- | --- | --- |
| COc1cccc2c1C(=O)c1c(O)c3c(c(O)c1C2=O)C[C@@](O)(C(=O)CO)C[C@@H]3O[C@H]1C[C@H](N)[C@H](O)[C@H](C)O1 [DOXORUBICIN] | 580 | 1500 |  |  |  |  |  |  |
| COc1cccc2c1C(=O)c1c(O)c3c(c(O)c1C2=O)C[C@@](O)(C(=O)C(C)C)C[C@@H]3O[C@H]1C[C@H](N)[C@H](O)[C@H](C)O1 | 400 | 1000 | 117 | 10.3 | 122 |  |  |  |
| COc1cccc2c1C(=O)c1c(O)c3c(c(O)c1C2=O)C[C@@](O)(C=O)C[C@@H]3O[C@H]1C[C@H](N)[C@H](O)[C@H](C)O1 | 2000 | 4100 |  | 6.5 |  | 154 | 169 |  |
| COc1cccc2c1C(=O)c1c(O)c3c(c(O)c1C2=O)C[C@@](O)(C(=O)CCc1ccccc1)C[C@@H]3O[C@H]1C[C@H](N)[C@H](O)[C@H](C)O1 | 1600 | 1500 |  | 8.6 |  | 129 |  |  |
| COc1cccc2c1C(=O)c1c(O)c3c(c(O)c1C2=O)C[C@@](O)(C(C)=O)C[C@@H]3O[C@H]1C[C@H](N)[C@H](O)[C@H](C)O1 [DAUNORUBICIN] | 330 | 660 |  |  |  |  |  |  |
| CCC(=O)[C@]1(O)Cc2c(O)c3c(c(O)c2[C@@H](O[C@H]2C[C@H](N)[C@H](O)[C@H](C)O2)C1)C(=O)c1c(OC)cccc1C3=O | 290 | 670 |  | 11 |  |  |  | 128 |
